Reference: ChEMBL document CHEMBL1127916, “Synthesis and biological character of 1-hydroxylated vitamin D3 Analogues” (1994)

Assays:
[1] = target: T1, Vitamin D-binding protein (Rattus norvegicus) (UniProt P04276); experiment: Relative binding potency for rat vitamin D binding protein (DBP) by competitive displacement with [3H]1-alpha,25(OH)2D3
T1 sequence (whole entry): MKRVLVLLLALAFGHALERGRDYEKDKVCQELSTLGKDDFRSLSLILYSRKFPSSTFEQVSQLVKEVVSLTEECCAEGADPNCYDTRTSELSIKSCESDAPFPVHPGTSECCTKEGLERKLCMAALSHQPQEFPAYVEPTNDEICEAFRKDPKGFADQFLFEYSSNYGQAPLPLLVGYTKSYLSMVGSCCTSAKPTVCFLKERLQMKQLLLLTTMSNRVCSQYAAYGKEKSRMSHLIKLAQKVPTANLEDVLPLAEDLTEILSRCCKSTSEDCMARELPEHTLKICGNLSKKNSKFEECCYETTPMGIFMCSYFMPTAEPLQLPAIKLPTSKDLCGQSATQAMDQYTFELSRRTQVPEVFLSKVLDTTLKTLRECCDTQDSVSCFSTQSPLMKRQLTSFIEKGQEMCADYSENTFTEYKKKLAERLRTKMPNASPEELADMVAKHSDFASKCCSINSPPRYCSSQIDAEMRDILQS

HL-60 = experiment: Antiproliferative activity in human promyeloid leukemia cells (HL-60); type: functional
[2] = target: T2, Vitamin D3 receptor (Bos taurus) (UniProt Q28037); experiment: Relative binding for bovine thymus vitamin D receptor (VDR) by displacement with [3H]1-alpha,25(OH)2D3
T2 sequence (whole entry): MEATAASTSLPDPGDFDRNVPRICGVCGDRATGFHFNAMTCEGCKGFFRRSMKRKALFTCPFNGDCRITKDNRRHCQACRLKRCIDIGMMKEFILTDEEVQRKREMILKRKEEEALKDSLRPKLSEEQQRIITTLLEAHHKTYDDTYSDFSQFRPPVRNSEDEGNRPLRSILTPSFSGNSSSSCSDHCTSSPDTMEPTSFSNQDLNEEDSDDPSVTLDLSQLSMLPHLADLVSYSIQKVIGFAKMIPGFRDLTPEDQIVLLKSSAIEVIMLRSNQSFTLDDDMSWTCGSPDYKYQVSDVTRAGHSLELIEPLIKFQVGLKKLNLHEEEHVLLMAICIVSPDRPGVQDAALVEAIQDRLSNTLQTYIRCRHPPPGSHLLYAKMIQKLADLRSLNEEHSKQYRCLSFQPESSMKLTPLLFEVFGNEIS

Relative binding potency [1] | Relative binding potency [2] | Compound | Relative potency (HL-60)
6.7 | 0.003 | C=C1/C(=C\C=C2/CCC[C@@]3(C)C2CC[C@@H]3[C@H](C)CCCC(C)(C)O)C[C@@H](O)[C@@H](OCCCO)[C@H]1O (stereo partly specified) | –
4.1 | 0.7 | C=C1/C(=C\C=C2/CCC[C@@]3(C)C2CC[C@@H]3[C@H](C)CCCC(C)(C)O)C[C@@H](O)[C@@H](OCCCO)[C@@H]1O (stereo partly specified) | –

The next lines start with the compound.

Compound | Relative binding potency [1] | Relative binding potency [2] | Relative potency (HL-60)
C=C1/C(=C\C=C2/CCC[C@@]3(C)C2CC[C@@H]3[C@H](C)CCCC(C)(C)O)C[C@@H](O)C[C@H]1O (stereo partly specified) | 2.9 | 0.2 | 0.2
C=C1/C(=C\C=C2/CCC[C@]3(C)[C@@H]([C@H](C)CCCC(C)(C)O)CC[C@@H]23)C[C@@H](O)C[C@@H]1O [CALCITRIOL] | 1 | 1 | 1
C=C1/C(=C\C=C2/CCC[C@@]3(C)C2CC[C@@H]3[C@H](C)OCCC(C)(C)O)C[C@@H](O)C[C@H]1O (stereo partly specified) | 0.007 | 0.007 | 0.003
C=C1/C(=C\C=C2/CCC[C@]3(C)[C@@H]([C@H](C)OCCC(C)(C)O)CC[C@@H]23)C[C@@H](O)C[C@@H]1O [MAXACALCITOL] | 0.002 | 0.6 | 3.1
